# Source: US9066516B2, “Uses of thaxtomin and thaxtomin compositions as herbicides” (priority 2008, dated 2015)
# Read-outs that look alike come from different tables or passages of the source.
# Columns and labels:
# dandelion = experiment: Greenhouse synergy test MBI-005 + turf herbicides (Example 11); type: in vivo; settings: 14 days
# Protocol: (§1) The common turf weeds dandelion and plantain were used in testing for synergy between MBI-005 and 2, 4- or dicamba, two common turf herbicides.
# (§2) There were 3 replicates per treatment which were sprayed with approximately ⅔ ml per replicate. The treatments were completely randomized and kept in a greenhouse at 25° C. The efficacy was rated at 7 and 14 days post treatment.
# plantain = experiment: as above; type: in vivo; settings: 14 days
# Protocol: as §1, §2
# crabgrass [1] = experiment: Post-emergent MBI-005 + Atrazine on crabgrass (Example 17); type: in vivo; settings: 35% Atrazine Label Rate
# Protocol: Ten seedlings in 2.5 cm square pots containing plant growth mix were sprayed with two suboptimal rates of MBI-005, and 35% of the atrazine label rate (0.3 gallons/A), or a combination thereof, at a volume of 40 gal/A using a cabinet track sprayer. Negative controls were sprayed with water. Pots were randomly placed in a growth room at 25° C. and 50% RH, and watered as necessary. Treatments were replicated five times and evaluated at 7 and 14 days for visual % damage, with 0% indicating no damage and 100% indicating plant death.
# (§3) Synergy was calculated as the ratio of observed (E) to expected (E/Ee) percent control using Colby's formula.
# barnyard grass [2] = experiment: Greenhouse spray test bialaphos + MBI-005 (Example 10); type: in vivo
# Protocol: The MBI-005 and bialaphos were prepared at various concentrations either as single ingredients or in combination with bialaphos. The treatments were applied at approximately ⅔ ml per replicate with a hand-help spray nozzle to barnyard grass or sedge. There were 3 replicates per treatment which were randomized after spray and were kept in a greenhouse at 25° C. for evaluation of phytotoxicity (% control).
# ragweed = experiment: Greenhouse synergy test MBI-005 + commercial herbicides (Example 11); type: in vivo; settings: 14 days
# Protocol: (§4) The test species barnyard grass, ragweed, sedge, and broad-leaf mustard were used for the valuation of synergy between MBI-005 and the rice herbicides clomazone, penoxsulam, cyhalofop, fenoxaprop-p-ethyl, bispyribac-sodium, thiobencarb, and propanil.
# (§5) […] other herbicides commonly used for field crops, glyphosate, glufosinate, synthetic version of bialaphos, and mesotrione were also tested for synergy with MBI-005 on crabgrass and ragweed.
# as §2
# watergrass = experiment: Field study, 1-sq foot plots (Example 5); type: in vivo; settings: 14 days after treatment
# Protocol: (§6) The combined effect of thaxtomin A and two commercial herbicides (Bipyribac-sodium formulated as Regiment and Lemongrass oil formulated as GreenMatch EX) on small-flower umbrella sedge and watergrass is tested in a field study using small (1-sq foot) plots. All single product treatments and tank mix combinations were sprayed at 57 gal per acre. Means in each column marked with the same letter in Table 2 are not statistically different from each other at p<0.05
# [3] = system: small-flower umbrella sedge; experiment: Field study, 1-sq foot plots (Example 5); type: in vivo; settings: 14 days after treatment
# Protocol: as §6
# [4] = system: small flower umbrella sedge; experiment: Post-emergent MBI-005 + rice herbicides on smallflower umbrella sedge (Example 19); type: in vivo; settings: 14 days
# Protocol: (§7) Twenty seedlings in 2.5 cm square pots containing plant growth mix were sprayed to full coverage using a hand sprayer. Negative controls were sprayed with water. Pots were randomly placed in a growth room at 25° C. and 50% RH, and watered as necessary. Treatments were replicated three times and evaluated at 7 and 14 days for visual % damage, with 0% indicating no damage and 100% indicating plant death.
# as §3
# barnyard grass [5] = experiment: Greenhouse synergy test MBI-005 + commercial herbicides (Example 11); type: in vivo; settings: 14 days
# Protocol: as §4, §2
# broad-leaf mustard = experiment: as above; type: in vivo; settings: 14 days
# Protocol: as §4, §2
# barnyard grass [6] = experiment: Post-emergent MBI-005 + rice herbicides on barnyard grass (Example 18); type: in vivo; settings: 14 days
# Protocol: as §7, with “Ten” for “Twenty”
# Synergistic effect were noted between MBI-005 and all three rice herbicides, 14 days after treatment. Synergy was calculated as the ratio of observed (E) to expected (E/Ee) percent control using Colby's formula.
# crabgrass [7] = experiment: Crabgrass seed germination, MBI-005 + m-Tyrosine (Example 15); type: in vivo; settings: 7 DAT; for AVG No. germinated: forty-five seeds
# Protocol: Forty-five seeds were placed on a ring of blotter paper inside a 3 cm petri dish, covered with 10 cm^3 of inert baked clay particle media and supplied with 7 ml of 0.035 mg/ml MBI-005, a m-Tyrosine concentration, or a combination of MBI-005 and m-Tyrosine (Table 14). Water was used as a negative control. Petri dishes were randomly placed in a growth room at 25° C. and 50% RH. Treatments were replicated three times and germinated seeds were counted 7 days after application; water was added as necessary to maintain moisture levels inside each petri dish.
# Synergy was calculated as the ratio of observed (E) to expected (E/Ee) reduction in germination using Colby's formula.
# [8] = system: smallflower umbrella sedge; Cyperus difformis; experiment: Greenhouse study thaxtomin A / sarmentine (Example 9); type: in vivo; settings: 25 days after treatment
# Protocol: (§8) A strain of S. acidiscabies was grown in oat bran broth for 5 days (25° C., 200 rpm). The whole cell broth was extracted using XAD resin, and the dried crude extract was resuspended in 4% ethanol and 0.2% non-ionic surfactant at a concentration of 10 mg/mL. The diluted extracts containing 0.2 and 0.4 mg thaxtomin A per mL were tested on three weed species (redstem; Ammania spp., smallflower umbrella sedge; Cyperus difformis and sprangletop: Leptochloa uninervia). Other treatments included sarmentine at 2.5 and 5.0 mg/mL, and a combination treatment containing 0.2 mg thaxtomin A and 2.5 mg sarmentine per mL. Each treatment was applied in three replicates. Treated plants were kept in a greenhouse under 12 h light/12 h dark conditions.
# redstem; Ammania spp. = experiment: as above; type: in vivo; settings: 25 days after treatment
# Protocol: as §8
# [9] = system: sprangletop: Leptochloa uninervia; experiment: as above; type: in vivo; settings: 25 days after treatment
# Protocol: as §8
# sedge = experiment: Greenhouse synergy test MBI-005 + commercial herbicides (Example 11); type: in vivo; settings: 14 days
# Protocol: as §4, §2
# crabgrass [10] = experiment: Greenhouse synergy test MBI-005 + field crop herbicides (Example 11); type: in vivo; settings: 14 days
# Protocol: as §5, §2
# barnyard grass [11] = experiment: Post-emergent MBI-005 + Propanil on barnyard grass (Example 20); type: in vivo; settings: Echinochloa crus-galli, post-emergence, 336 h; 25% Propanil (of label rate); 14 days; read-out: Observed Average % Efficacy (E)
# Protocol: Negative controls were sprayed with water. Pots were randomly placed in a growth room at 25° C. and 50% RH, and watered as necessary. Treatments were replicated three times and evaluated at 7 and 14 days for visual % damage, with 0% indicating no damage and 100% indicating plant death.
# as §3
# [12] = in vivo; cited from earlier work
# [13] = system: Smallflower umbrella sedge; experiment: Post-emergent MBI-005 + Thiobencarb on Smallflower umbrella sedge (Example 21); type: in vivo; settings: post-emergence, 336 h, 14 days, read-out: Observed Average % Efficacy (E)
# Protocol: […] Negative controls were sprayed with water. Pots were randomly placed in a growth room at 25° C. and 50% RH, and watered as necessary. Treatments were replicated three times and evaluated at 7 and 14 days for visual % damage, with 0% indicating no damage and 100% indicating plant death.
# as §3
# [14] = Bispyribac-sodium 13.3% v/v of label rate
compound,measurement,setting,value
"O=C(O)COc1ccc(Cl)cc1Cl [2,4-D, reference compound]",% Control Product,"dandelion; 2, 4-D 0.176 mg/mL",25.0%
same,% Control Product,"plantain; 2, 4-D 2.340 mg/mL",50.0%
"CCNc1nc(Cl)nc(NC(C)C)n1 [Atrazine, reference compound]",AVG E (visual % damage),crabgrass [1]; 7DAT,11.9%
same,AVG/ E (visual % damage),crabgrass [1]; 14DAT,8.8%
C[C@H](NC(=O)[C@H](C)NC(=O)[C@@H](N)CCP(C)(=O)O)C(=O)O [Bialaphos],% Control (14 days),"barnyard grass [2]; Table 6, Bialaphos 0.089 mg/mL",0.0 a %
same,% Control (14 days),"barnyard grass [2]; Table 6, Bialaphos 0.178 mg/mL",0.0 a %
same,% Control (14 days),"barnyard grass [2]; Table 6, Bialaphos 0.356 mg/mL",0.0 a %
same,% Control (14 days),"barnyard grass [2]; Table 6, Bialaphos 0.534 mg/mL",0.0 a %
same,% Control (14 days),"barnyard grass [2]; Table 6, Bialaphos 0.712 mg/mL",0.0 a %
same,% Control (14 days),"barnyard grass [2]; Table 6, Bialaphos 0.890 mg/mL",1.3 ab %
same,% Control (14 days),"barnyard grass [2]; Table 6, Bialaphos 1.068 mg/mL",5.0 abc %
same,% Control (14 days),"barnyard grass [2]; Table 7, Bialaphos 0.18 mg/mL",6.7 bc %
same,% Control (14 days),"barnyard grass [2]; Table 7, Bialaphos 0.53 mg/mL",3.3 ab %
same,% Control (14 days),"barnyard grass [2]; Table 7, Bialaphos 1.07 mg/mL",10.0 c %
same,% Control (14 days),"barnyard grass [2]; Table 7, Bialaphos 1.07 mg/mL, listed as bialaphos",10%
same,% Control (7 days),"barnyard grass [2]; Table 8, Bialaphos 1.1 mg/mL",5.0 ab %
same,% Control (14 days),"barnyard grass [2]; Table 8, Bialaphos 1.1 mg/mL",3.7 a %
same,% Control (7 days),"barnyard grass [2]; Table 8, Bialaphos 1.4 mg/mL",10.8 b %
same,% Control (14 days),"barnyard grass [2]; Table 8, Bialaphos 1.4 mg/mL",23.3 b %
same,% Control (7 days),"barnyard grass [2]; Table 8, Bialaphos 1.8 mg/mL",62.5 c %
same,% Control (14 days),"barnyard grass [2]; Table 8, Bialaphos 1.8 mg/mL",66.7 c %
COc1cc(OC)nc(Oc2cccc(Oc3nc(OC)cc(OC)n3)c2C(=O)O)n1 [Bispyribac-sodium],% Control Product,ragweed; bispyribac-sodium 0.0216 mg/mL,5.0%
same,Watergrass control (%),watergrass; Bispyribac-sodium 12 g/acre,32.5a %
same,Watergrass control (%),watergrass; Bispyribac-sodium ½ (6 g/acre),15c %
same,Sedge control (%),[3]; Bispyribac-sodium 12 g/acre,87.5a %
same,Sedge control (%),[3]; Bispyribac-sodium ½ (6 g/acre),47.5c %
same,% control AI,[4]; [14],37.5%
same,% Control Product,barnyard grass [5]; bispyribac-sodium 0.032 mg/mL,0.0%
same,% Control Product,broad-leaf mustard; bispyribac-sodium 0.0216 mg/mL,53.3%
same,% control chemical AI,barnyard grass [6]; [14],6.7%
"N[C@@H](Cc1cccc(O)c1)C(=O)O [M-tyrosine, m-Tyrosine]",E (% controlled compared to UTC),crabgrass [7]; .22 mg/mL M-tyrosine,8.3%
same,AVG No. germinated,crabgrass [7]; .22 mg/mL M-tyrosine,40.7
same,E (% controlled compared to UTC),crabgrass [7]; .44 mg/mL M-tyrosine,0.8%
same,AVG No. germinated,crabgrass [7]; .44 mg/mL M-tyrosine,44.0
CCCCC/C=C/C=C/C(=O)N1CCCC1 [Sarmentine],Control of sedge (%),[8]; Sarmentine 2.5 mg/mL,8.3a %
same,Control of sedge (%),[8]; Sarmentine 5.0 mg/mL,6.7a %
same,Control of redstem (%),redstem; Ammania spp.; Sarmentine 2.5 mg/mL,0a %
same,Control of redstem (%),redstem; Ammania spp.; Sarmentine 5.0 mg/mL,2.5ab %
same,Control of sprangletop (%),[9]; Sarmentine 2.5 mg/mL,80.0c %
same,Control of sprangletop (%),[9]; Sarmentine 5.0 mg/mL,92.3d %
CC1(C)CON(Cc2ccccc2Cl)C1=O [clomazone],% control AI,[4]; Clomazone 13% v/v of label rate,0.0%
same,% Control Product,barnyard grass [5]; clomazone 0.513 mg/mL,37.5%
same,% Control Product,sedge; clomazone 0.501 mg/mL,0.0%
same,% Control Product,broad-leaf mustard; clomazone 0.513 mg/mL,25.0%
same,% control chemical AI,barnyard grass [6]; Clomazone 13.3 % v/v of label rate,37.50%
"COc1c(Cl)ccc(Cl)c1C(=O)O [dicamba, reference compound]",% Control Product,dandelion; dicamba 0.121 mg/mL,45.8%
same,% Control Product,plantain; dicamba 6.025 mg/mL,50.0%
CCOC(=O)[C@@H](C)Oc1ccc(Oc2nc3ccc(Cl)cc3o2)cc1 [fenoxaprop-p-ethyl],% Control Product,barnyard grass [5]; fenoxaprop-p-ethyl 0.006 mg/mL,91.7%
same,% Control Product,sedge; fenoxaprop-p-ethyl 0.116 mg/mL,0.0%
same,% Control Product,broad-leaf mustard; fenoxaprop-p-ethyl 0.006 mg/mL,0.0%
CP(=O)(O)CCC(N)C(=O)O (centres unmarked) [glufosinate],% Control Product,crabgrass [10]; glufosinate 0.151 mg/mL,83.3%
same,% Control Product,ragweed; glufosinate 0.194 mg/mL,22.5%
O=C(O)CNCP(=O)(O)O [glyphosate],% Control Product,crabgrass [10]; glyphosate 0.754 mg/mL,45.8%
same,% Control Product,ragweed; glyphosate 2.198 mg/mL,15.0%
CS(=O)(=O)c1ccc(C(=O)C2C(=O)CCCC2=O)c([N+](=O)[O-])c1 [mesotrione],% Control Product,crabgrass [10]; mesotrione 0.24 mg/mL,62.5%
same,% Control Product,ragweed; mesotrione 0.96 mg/mL,25.0%
COc1cnc(OC)n2nc(NS(=O)(=O)c3c(OCC(F)F)cccc3C(F)(F)F)nc12 [penoxsulam],% control AI,[4]; Penoxsulam 13% v/v of label rate,33.3%
same,% Control Product,barnyard grass [5]; penoxsulam 0.051 mg/mL,25.0%
same,% Control Product,sedge; penoxsulam 0.047 mg/mL,66.7%
same,% control chemical AI,barnyard grass [6]; Penoxsulam 13.0 % v/v of label rate,25.0%
CCC(=O)Nc1ccc(Cl)c(Cl)c1 [propanil],% control AI,[4]; Propanil .5% v/v of label rate,62.5%
same,% Control Product,barnyard grass [5]; propanil 0.365 mg/mL,32.5%
same,% Control Product,broad-leaf mustard; propanil 0.036 mg/mL,1.67%
same,Observed average % efficacy (visual damage),barnyard grass [11],32.5%
"CN1C(=O)[C@H](Cc2c[nH]c3cccc([N+](=O)[O-])c23)N(C)C(=O)[C@@H]1Cc1ccccc1 [thaxtomin D, reference compound]","activity as pre and post emergent, non-systemic herbicides",[12],marked activity
CCN(CC)C(=O)SCc1ccc(Cl)cc1 [thiobencarb],% control AI,[4]; Thiobencarb 25% v/v of label rate,41.7%
same,% Control Product,barnyard grass [5]; thiobencarb 1.743 mg/mL,41.7%
same,% Control Product,sedge; thiobencarb 3.15 mg/mL,58.3%
same,% Control Product,broad-leaf mustard; thiobencarb 1.743 mg/mL,10.0%
same,Observed average % efficacy,"[13]; first series, 25% Thiobencarb",41.7%
same,Observed average % efficacy,"[13]; second series, 15% Thiobencarb",25%
